Experimental findings from US10370369B2, “Acid addition salt of 3-aminoquinuclidine which does not exhibit deliquescence” (YUKI GOSEI KOGYO CO. LTD., priority 2015, dated 2019) are described below.

Assay type in all cases: physicochemical
The nature of data set [1]: Deliquescence Test (Experimental Example 1, salts of racemic 3-aminoquinuclidine). Conditions: about 0.5 g allowed to stand for 1 hour, 25 to 27° C., humidity of 76 to 82%, visual evaluation. As for the experimental part:
racemic 3-aminoquinuclidine.dihydrochloride of reagent, and the acid addition salts (about 0.5 g) of racemic 3-aminoquinuclidine obtained in Examples 1 to 6 and Comparative Examples 1 to 9 were allowed to stand for 1 hour, under the condition of 25 to 27° C., and a humidity of 76 to 82%, and a deliquescence was observed by a visual evaluation.

Data set [2] in a line: Deliquescence Test (Experimental Example 2, salts of (R)-3-aminoquinuclidine). Conditions: about 0.5 g allowed to stand for 1 hour, 24 to 25° C., humidity of 74 to 76%, visual evaluation. The procedure: The acid addition salts (about 0.5 g) of (R)-3-aminoquinuclidine obtained in Examples 7 to 13, Referential Example 2, and Comparative Examples 10 to 17 were allowed to stand for 1 hour, under the conditions of 24 to 25° C. and a humidity of 74 to 76%, and a deliquescence was observed by a visual evaluation.

Data set [3] in a line: Deliquescence Test (Experimental Example 3, salts of (S)-3-aminoquinuclidine). Conditions: about 0.5 g allowed to stand for 1 hour, 24 to 26° C., humidity of 75 to 78%, visual evaluation. As for the experimental part:
The acid addition salts (about 0.5 g) of (S)-3-aminoquinuclidine obtained in Examples 14 to 19, and Comparative Examples 18 to 19 were allowed to stand for 1 hour, under the conditions of 24 to 26° C., and a humidity of 75 to 78%, and a deliquescence was observed by a visual evaluation.

`CC1(C)C2CCC1(CS(=O)(=O)O)C(=O)C2.NC1CN2CCC1CC2` (racemic) [Example 6, racemic 3-aminoquinuclidine.mono-(±)-10-camphorsulfonate]: the Deliquescence entry in data set [1] is recorded as “Not deliquesce”.

For `N[C@H]1CN2CCC1CC2.O=[N+]([O-])O.O=[N+]([O-])O` [Comparative Example 11, (R)-3-aminoquinuclidine.dinitrate], the Deliquescence result in data set [2] was “Gradually”.

With `Cl.Cl.NC1CN2CCC1CC2` (racemic) [Reagent, racemic 3-aminoquinuclidine.dihydrochloride], the Deliquescence result in data set [1] is “Immediately”.

As for `N[C@H]1CN2CCC1CC2.O=C(O)c1ccccc1.O=C(O)c1ccccc1` [Comparative Example 14, (R)-3-aminoquinuclidine.dibenzoate], the Deliquescence entry in data set [2] is given as “Immediately”.

Take `Br.Br.N[C@H]1CN2CCC1CC2` [Comparative Example 10, (R)-3-aminoquinuclidine-dihydrobromide]: the Deliquescence result in data set [2] is on record as “Gradually”.

`NC1CN2CCC1CC2.O=C(O)C(=O)O` (racemic) [Example 4, racemic 3-aminoquinuclidine.monooxalate]: the Deliquescence result in data set [1] was “Not deliquesce”.

In the case of `N[C@@H]1CN2CCC1CC2.N[C@@H]1CN2CCC1CC2.O=P(O)(O)O.O=P(O)(O)O.O=P(O)(O)O` [Example 14, (S)-3-aminoquinuclidine.sesquiphosphate], in data set [3], the Deliquescence entry was “Not deliquesce”.

On to `N[C@H]1CN2CCC1CC2.O=C(O)c1ccc(C(=O)O)cc1` [Example 10, (R)-3-aminoquinuclidine.monoterephthalate], for which the Deliquescence result in data set [2] is recorded as “Not deliquesce”.

With `NC1CN2CCC1CC2.NC1CN2CCC1CC2.NC1CN2CCC1CC2.O=C(O)CC(O)(CC(=O)O)C(=O)O.O=C(O)CC(O)(CC(=O)O)C(=O)O` (racemic) [Comparative Example 8, racemic 3-aminoquinuclidine.2/3 citrate], the Deliquescence entry in data set [1] is “Immediately”.

As for `N[C@@H]1CN2CCC1CC2.O=C(O)/C=C/C(=O)O` [Example 16, (S)-3-aminoquinuclidine.monofumarate], in data set [3], the Deliquescence result is “Not deliquesce”.

Regarding `NC1CN2CCC1CC2.O=C(O)c1ccccc1.O=C(O)c1ccccc1` (racemic) [Comparative Example 6, racemic 3-aminoquinuclidine.dibenzoate], the Deliquescence entry in data set [1] is reported as “Gradually”.

As for `Br.Br.NC1CN2CCC1CC2` (racemic) [Comparative Example 1, racemic 3-aminoquinuclidine-dihydrobromide], the Deliquescence result in data set [1] is listed as “Gradually”.

With `Cc1ccc(S(=O)(=O)O)cc1.NC1CN2CCC1CC2` (racemic) [Example 5, racemic 3-aminoquinuclidine.mono-p-toluenesulfonate], the Deliquescence result in data set [1] was “Not deliquesce”.

On to `CCC(=O)O.NC1CN2CCC1CC2` (racemic) [Comparative Example 5, racemic 3-aminoquinuclidine.monopropionate], for which the Deliquescence entry in data set [1] is given as “Immediately”.

On to `NC1CN2CCC1CC2.O=C(O)/C=C\C(=O)O` (racemic) [Comparative Example 7, racemic 3-aminoquinuclidine.monomaleate], for which, in data set [1], the Deliquescence entry is “Gradually”.

For the compound `N[C@H]1CN2CCC1CC2.N[C@H]1CN2CCC1CC2.N[C@H]1CN2CCC1CC2.O=C(O)CC(O)(CC(=O)O)C(=O)O.O=C(O)CC(O)(CC(=O)O)C(=O)O` [Comparative Example 16, (R)-3-aminoquinuclidine.2/3citrate], in data set [2], the Deliquescence entry is given as “Immediately”.

As to `NC1CN2CCC1CC2` (racemic) [Example 1, racemic 3-aminoquinuclidine.sesquiphosphate], the Deliquescence entry in data set [1] is “Not deliquesce”.

On to `CC(=O)O.CC(=O)O.NC1CN2CCC1CC2` (racemic) [Comparative Example 4, racemic 3-aminoquinuclidine.diacetate], for which the Deliquescence entry in data set [1] is on record as “Immediately”.

For `N[C@@H]1CN2CCC1CC2.O=S(=O)(O)O` [Example 15, (S)-3-aminoquinuclidine.monosulfate], the Deliquescence entry in data set [3] is listed as “Not deliquesce”.

In the case of `N[C@@H]1CN2CCC1CC2.O=C(O)c1ccc(C(=O)O)cc1` [Example 17, (S)-3-aminoquinuclidine.monoterephthalate], the Deliquescence result in data set [3] is recorded as “Not deliquesce”.

Consider `N[C@H]1CN2CCC1CC2.N[C@H]1CN2CCC1CC2.O=P(O)(O)O.O=P(O)(O)O.O=P(O)(O)O` [Example 7, (R)-3-aminoquinuclidine.sesquiphosphate], for which the Deliquescence result in data set [2] is “Not deliquesce”.

With `N[C@H]1CN2CCC1CC2.O=C(O)/C=C/C(=O)O` [Example 9, (R)-3-aminoquinuclidine.monofumarate], in data set [2], the Deliquescence result is “Not deliquesce”.

As for `Cl.Cl.N[C@H]1CN2CCC1CC2` [Referential Example 2, (R)-3-aminoquinuclidine.dihydrochloride], the Deliquescence result in data set [2] is “Immediately”.

With `N[C@@H]1CN2CCC1CC2.O=[N+]([O-])O.O=[N+]([O-])O` [Comparative Example 18, (S)-3-aminoquinuclidine.dinitrate], the Deliquescence entry in data set [3] is on record as “Gradually”.

On to `Cc1ccc(S(=O)(=O)O)cc1.N[C@H]1CN2CCC1CC2` [Example 12, (R)-3-aminoquinuclidine.mono-p-toluenesulfonate], for which the Deliquescence entry in data set [2] was “Not deliquesce”.

For the compound `N[C@H]1CN2CCC1CC2.O=S(=O)(O)O` [Example 8, (R)-3-aminoquinuclidine.monosulfate], in data set [2], the Deliquescence entry is given as “Not deliquesce”.

For the compound `N[C@H]1CN2CCC1CC2.O=C(O)C(=O)O` [Example 11, (R)-3-aminoquinuclidine.monooxalate], the Deliquescence result in data set [2] is on record as “Not deliquesce”.

Regarding `NC1CN2CCC1CC2.O=S(=O)(O)O` (racemic) [Comparative Example 2, racemic 3-aminoquinuclidine.monosulfate], the Deliquescence entry in data set [1] is reported as “Gradually”.

`CC(=O)O.CC(=O)O.N[C@@H]1CN2CCC1CC2` [Comparative Example 19, (S)-3-aminoquinuclidine.diacetate]: the Deliquescence entry in data set [3] is given as “Immediately”.

For the compound `NC1CN2CCC1CC2.O=[N+]([O-])O.O=[N+]([O-])O` (racemic) [Comparative Example 3, racemic 3-aminoquinuclidine.dinitrate], in data set [1], the Deliquescence entry was “Gradually”.

`N[C@H]1CN2CCC1CC2.O=C(O)/C=C\C(=O)O` [Comparative Example 15, (R)-3-aminoquinuclidine.monomaleate]: the Deliquescence entry in data set [2] is given as “Gradually”.

For `CC(=O)O.CC(=O)O.N[C@H]1CN2CCC1CC2` [Comparative Example 12, (R)-3-aminoquinuclidine.diacetate], the Deliquescence result in data set [2] was “Immediately”.

For the compound `NC1CN2CCC1CC2.O=C(O)c1ccc(C(=O)O)cc1` (racemic) [Example 3, racemic 3-aminoquinuclidine.monoterephthalate], the Deliquescence result in data set [1] is recorded as “Not deliquesce”.

`CS(=O)(=O)O.N[C@H]1CN2CCC1CC2` [Comparative Example 17, (R)-3-aminoquinuclidine.monomesylate]: the Deliquescence result in data set [2] is on record as “Gradually”.

For the compound `CC1(C)C2CCC1(CS(=O)(=O)O)C(=O)C2.N[C@H]1CN2CCC1CC2` [Example 13, (R)-3-aminoquinuclidine.mono-(−)-10-camphorsulfonate], the Deliquescence result in data set [2] is “Not deliquesce”.

Regarding `N[C@@H]1CN2CCC1CC2.O=C(O)C(=O)O` [Example 18, (S)-3-aminoquinuclidine.monooxalate], the Deliquescence result in data set [3] was “Not deliquesce”.

With `NC1CN2CCC1CC2.O=C(O)/C=C/C(=O)O` (racemic) [Example 2, racemic 3-aminoquinuclidine.monofumarate], the Deliquescence result in data set [1] is on record as “Not deliquesce”.

Consider `CS(=O)(=O)O.NC1CN2CCC1CC2` (racemic) [Comparative Example 9, racemic 3-aminoquinuclidine.monomesylate], for which the Deliquescence result in data set [1] is “Gradually”.

For `Cc1ccc(S(=O)(=O)O)cc1.N[C@@H]1CN2CCC1CC2` [Example 19, (S)-3-aminoquinuclidine.mono-p-toluenesulfonate], the Deliquescence result in data set [3] is on record as “Not deliquesce”.

Regarding `Cl.Cl.N[C@@H]1CN2CCC1CC2` [Referential Example 4, (S)-3-aminoquinuclidine.dihydrochloride], in data set [3], the Deliquescence entry is reported as “Immediately”.

In the case of `CCC(=O)O.N[C@H]1CN2CCC1CC2` [Comparative Example 13, (R)-3-aminoquinuclidine.monopropionate], in data set [2], the Deliquescence entry was “Immediately”.
